The values below come from patent publication US20180113115A1, “SCREENING ASSAYS BASED ON MAG AND/OR ABHD6 FOR SELECTING INSULIN SECRETION PROMOTING AGENT” (VAL-CHUM, LIMITED PARTNERSHIP, priority 2010, published 2018).

The subject of one assay is rat islets. Conditions: lipolysis inhibition by pan-lipase inhibitors; cited from earlier work.
The test system of a further assay is β-cell. The note with it: inhibition of β-cell plasma membrane DAG lipase activity; cited from earlier work.
For another assay, the system named is MAG lipase (MAGL). The note with it: cited from earlier work.
Assay [1] concerns INS 832/13 cells. Put plainly: Insulin secretion measurement in INS 832/13 cells (static incubation). In kind it is cell-based. The note with it: for glucose-stimulated insulin secretion (GSIS): increasing glucose (5 and 10 mM), 10 μM WWL70, 50 μM orlistat, 1 μM JZL184. On the procedure: (§1) INS 832/13 cells (Hohmeir et al.) were cultured at 37° C. in a humidified atmosphere containing 5% CO2 in RPMI 1640 with sodium bicarbonate, supplemented with 10% (v/v) fetal calf serum (Wisent), 10 mM HEPES, pH 7.4, 2 mM L-glutamine, 1 mM sodium pyruvate and 50 μM β-mercaptoethanol (complete RPMI). Cells were grown to 80% confluence. Media were changed to RPMI 1640 containing 3 mM glucose supplemented as the complete RPMI 24 h prior to the experiments. Insulin secretion incubations were conducted in Krebs-Ringer bicarbonate buffer containing 10 mM HEPES, pH 7.4 (KRBH).
INS 832/13 cells were washed in KRBH containing 1 mM glucose and 0.5% defatted BSA (KRBH 1G/0.5% BSA) and pre-incubated for 45 min in KRBH 1G/0.5% BSA in presence of pharmacological agents (at indicated concentrations) or vehicle (DMSO). […] When examining the effect of 2-AG, it was added to cells at 0 to 1 μM concentration at 2 mM and 10 mM glucose. Insulin secretion from INS 832/13 cells was measured from either 45-min or 2-h static incubations in KRBH containing various glucose concentrations, 0.5% defatted BSA and pharmacological agents or vehicle, with or without 35 mM KCl or 0.3 mM palmitate, as specified.

Assay [2] deals with isolated C57Bl6 mouse islets. Put plainly: GSIS in isolated C57Bl6 mouse islets. In kind it is cell-based. Conditions: 20 μM WWL70 or 20 μM AMG9810 alone; 2.8 and 11.1 mM glucose. The text has this:
(§2) All procedures were approved by the Institutional Committee for the Protection of Animals at the Centre Hospitalier de l'Université de Montreal Research Center. Wistar rats or […] mice or CD1 mice (all male) from Charles River (St-Constant, QC, Canada) were anaesthetized with Somnotol® (MTC Pharmaceuticals, Canada) and sacrificed by exsanguination. Pancreatic islets were isolated by collagenase (type XI from Sigma) digestion of total pancreas (Gotoh et al.), followed by separation (centrifugation at 1040×g) on a Histopaque™ 1119, 1077 (Sigma) gradient. Isolated islets were handpicked and cultured overnight in a petri dish at 37° C. in a humidified atmosphere containing 5% CO2 in RPMI 1640 with sodium bicarbonate, supplemented with 10% fetal calf serum, 10 mM HEPES pH 7.4, 2 mM L-glutamine, 1 mM sodium pyruvate, 100 U/mL penicillin and 100 μg/mL streptomycin.
(§3) For insulin secretion from rat, mouse or human islets, batches of 10 islets were washed in KRBH containing 2.8 mM glucose and 0.5% defatted BSA, and pre-incubated for 45 min in KRBH containing 2.8 mM glucose, 0.5% defatted BSA and different pharmacological agents (at indicated concentrations) or DMSO. Islets were then incubated for either 45 min or 2 h in KRBH containing various glucose concentrations or 2.8 mM glucose plus 35 mM KCl, 0.5% defatted BSA in the presence or absence of drugs (at indicated concentrations) or vehicle (DMSO). At the end of the incubation, media were collected and insulin extracted from cells or islets in acid-ethanol (1.5% HCl, 75% ethanol). Total insulin contents and media insulin concentrations were determined by radioimmunoassay using human insulin standards (Linco Research, Mo.).

Assay [3] concerns dispersed rat islet cells. Put plainly: GSIS in dispersed rat islet cells. In kind it is cell-based. Conditions: 20 μM WWL70, 20 μM AMG9810 or combination.
Source text: as §2, with “streptomycin. […]” for “streptomycin.”
(§4) For insulin secretion from rat, mouse or human islets, batches of 10 islets were washed in KRBH containing 2.8 mM glucose and 0.5% defatted BSA, and pre-incubated for 45 min in KRBH containing 2.8 mM glucose, 0.5% defatted BSA and different pharmacological agents (at indicated concentrations) or DMSO. […] Total insulin contents and media insulin concentrations were determined by radioimmunoassay using human insulin standards (Linco Research, Mo.).

In a further assay the test system is ABHD12. Conditions: cited from earlier work.
Assay [4] relates to INS832/13 cell membrane extracts. Nature of the assay: 1-OG (MAG) hydrolysis by cell membrane extracts, released oleic acid by HPLC. In kind it is biochemical. Conditions: 50 μM 1-oleoylglycerol, 1 h at 30° C. On the procedure: 8 μg of […] cell membrane extracts were incubated with 50 μM of MAG (1-oleoylglycerol) and the indicated inhibitors for 1 h at 30° C. Released oleic acid was measured by HPLC after Dole's extraction and derivatization with bromoacetaminophenone.

For assay [5], the system named is INS 832/13 cells. Nature of the assay: Effect of lipase inhibitors on [U-14C]-glucose incorporation into lipids. It is filed as cell-based. Conditions: for glucose incorporation into 1-monoacylglycerol (1-MAG) / glucose incorporation into 2-monoacylglycerol (2-MAG) / glucose incorporation into diacylglycerol (DAG) / glucose incorporation into triglycerides (TG): 10 μM WWL70, 1 μM JZL184. The protocol:
as §1
INS 832/13 cells were incubated overnight at 11 mM [U-^14C]-glucose in RPMI medium in a CO2-incubator in order to pre-label all the lipids in the cells. Then the cells were washed in KRBH (1 mM [U-^14C]-glucose) and pre-incubated for 45 min in KRBH at 1 mM [U-^14C]-glucose to bring metabolism to basal level. After this, cells were further incubated for 2 h in KRBH at 1 and 10 mM [U-^14C]-glucose and the indicated inhibitors. […] Then the cells were washed rapidly and flash-frozen in liquid nitrogen and extracted for lipids. Lipids were separated by TLC and the associated radioactivity was quantified. Neutral lipids were separated on boric acid/silica gel-TLC, with two solvent systems, first petroleum ether: diethyl ether: acetic acid (70:30:1), followed by second solvent system up to half of the plates, chloroform: acetone: acetic acid (60:40:1). Phospholipids were separated with a solvent system, chloroform: methanol: water (65:25:4).

For a further assay, the system named is CD1 mice. Nature of the assay: Oral glucose tolerance test (OGTT). It is filed as in vivo, mouse. The note with it: WWL70 10 mg/kg intraperitoneally 2 h prior to oral glucose 2 g/kg. The protocol:
Normal CD1 mice were fasted for 4 h prior to the oral glucose tolerance test (OGTT). […] Control mice (6) were given only vehicle. After 2 h, all mice were given a oral gavage of glucose (2 g/kg of body weight), followed by blood collection from the tail vein at the indicated times. Blood glucose (glucometer; Accu-Check™, Roche Applied Science) and plasma insulin (ELISA) (insulin mouse ultrasensitive electroimmunoassay, ALPCO Diagnostics, Salem, N.H.) were measured.

Assay [6] concerns isolated CD1 mouse islets. Put plainly: GSIS in isolated CD1 mouse islets. It is filed as cell-based. The note with it: 20 μM WWL70 or 20 μM AMG9810 alone.
Source text: as §2, §3

Another assay relates to human intact islets. Put plainly: GSIS in human intact islets. In kind it is cell-based. The note with it: 20 μM WWL70 or 20 μM AMG9810 alone; one donor. The protocol: Human islets were obtained from the Human Islet Isolation Core of MDRC, following appropriate ethical guidelines. The donor was a […] without any known metabolic disease. Islets were hand-picked and cultured overnight before use. Both rodent and human islets were also treated with trypsin to disperse islet cells and then cultured overnight in RPMI complete medium. These overnight cultured dispersed islets cells were then used for examining the effect of various pharmacological agents.
as §3

For another assay, the system named is rat intact islets. Put plainly: GSIS in isolated intact rat islets. In kind it is cell-based. Conditions: 20 μM WWL70.
Source text: as §2, §4

Assay [7] concerns the target TRPV1-R (Homo sapiens, UniProt Q8NER1). Conditions: both in vitro and in vivo; cited from earlier work.
For assay [8], the system named is TRPV1-R. The note with it: cited from earlier work.
Assay [9] concerns INS 832/13 cells. Put plainly: [1-14C]-arachidonic acid incorporation into 1-AG and 2-AG. It is filed as cell-based. The protocol:
FIG. 2A and FIG. 2B illustrate that glucose stimulates the incorporation of [1-^14C]-arachidonic acid into 1-AG and 2-AG in INS 832/13 cells. Incorporation of [1-^14C]-arachidonic acid (nmol/mg protein) is shown in function of various compounds. Results are shown for low (2 mM, 2G, white) and high (10 mM, 10G, dotted) glucose concentration. […] (n=6; *** p<0.001). Results are shown in nmol/mg protein for different cellular compounds (PL=phospholipids, 1-AG=1-monoarachidonylglycerol, 2-AG=2-monoarachidonylglycerol, NEFA=non-esterified fatty acids, 1,2-DAG=1,2-diacylglycerol, 1,3-DAG=1,3-diacylglycerol, TG=triacylglycerol).

The mark [10] stands for this setting: 1 and 10 mM [U14C]-glucose, 50 μM orlistat, 10 μM WWL70.
Where [11] appears, read: 1 and 10 mM [U14C]-glucose, 50 μM orlistat.

Entries after “also recorded” stand apart in the source; their conditions may differ. Some results are limits rather than exact numbers.

Sequence of TRPV1-R (Homo sapiens, UniProt Q8NER1) (Q8NER1 whole entry): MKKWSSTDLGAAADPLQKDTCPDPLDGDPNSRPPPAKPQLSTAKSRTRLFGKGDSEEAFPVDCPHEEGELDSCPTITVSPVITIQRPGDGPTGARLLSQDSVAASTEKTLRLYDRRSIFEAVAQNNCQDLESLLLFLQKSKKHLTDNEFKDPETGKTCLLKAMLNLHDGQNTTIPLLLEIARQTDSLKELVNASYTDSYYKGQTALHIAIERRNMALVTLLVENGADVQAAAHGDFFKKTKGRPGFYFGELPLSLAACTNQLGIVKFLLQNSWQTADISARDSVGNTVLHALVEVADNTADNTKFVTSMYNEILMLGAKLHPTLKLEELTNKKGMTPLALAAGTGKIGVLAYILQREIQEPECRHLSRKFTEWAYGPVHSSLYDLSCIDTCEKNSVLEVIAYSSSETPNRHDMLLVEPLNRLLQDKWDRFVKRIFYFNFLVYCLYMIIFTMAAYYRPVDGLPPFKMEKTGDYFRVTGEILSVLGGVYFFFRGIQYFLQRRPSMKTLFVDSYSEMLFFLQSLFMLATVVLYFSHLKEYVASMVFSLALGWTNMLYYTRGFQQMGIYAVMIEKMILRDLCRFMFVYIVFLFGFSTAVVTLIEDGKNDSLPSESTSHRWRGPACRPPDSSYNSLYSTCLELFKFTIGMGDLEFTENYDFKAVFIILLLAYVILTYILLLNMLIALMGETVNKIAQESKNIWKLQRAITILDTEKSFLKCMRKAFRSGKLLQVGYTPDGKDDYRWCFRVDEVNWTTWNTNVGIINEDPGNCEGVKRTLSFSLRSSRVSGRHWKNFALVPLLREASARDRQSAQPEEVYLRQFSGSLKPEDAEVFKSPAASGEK

Regarding `Cc1cc(C)[nH]n1` [3,5-dimethylpyrazole], the GSIS entry with rat islets is given as “curtailed GSIS”.
As to `O=C(NCCCCCCNC(=O)ON=C1CCCCC1)ON=C1CCCCC1` [RHC80267], the GSIS entry in the assay with β-cell is reported as “lowered GSIS”.
With `CN(Cc1cccc(-c2ccncc2)c1)C(=O)Oc1ccc(-c2ccc(C(N)=O)cc2)cc1` [WWL70], in the assay with MAG lipase (MAGL), the “effect on MAG lipase (MAGL)” value is recorded as “no effect”. Moreover, in the assay with INS 832/13 cells [1] (10 μM WWL70, glucose + palmitate), the “portion of GSIS amplified by palmitate” value is “not further enhanced”. Further, in the assay with INS 832/13 cells [1] (5 mM and 10 mM glucose), the “WWL70 concentration reaching near maximal enhancement of GSIS” value is around 10 µM. In addition, in the assay on INS 832/13 cells [1] (35 mM KCl, 1 mM glucose, 10 μM WWL70 or 10 μM AMG9810), the KCl-stimulated insulin secretion entry was “Neither WWL70 nor AMG9810 had any effect”. The “insulin secretion stimulated by leucine+glutamine” value in the assay on INS 832/13 cells [1] (Gln+Leu 5 mM each, 1 mM glucose, 10 μM WWL70 or 10 μM AMG9810) was “enhanced”. Further, the “glucose-stimulated insulin secretion (GSIS)” value in the assay with INS 832/13 cells [1] is “almost doubled the GSIS; also recorded: robust increase”. Further, the GSIS entry in assay [2] is recorded as “enhancement”; in assay [3] it was “enhancement”; in assay [6], “enhanced GSIS”; in the assay with human intact islets it was “enhancement”; with rat intact islets, “enhanced GSIS”. The “effect on ABHD12” value with ABHD12 is given as “no effect”. In addition, the “1-OG hydrolysis activity (released oleic acid)” value in assay [4] is given as “inhibited the 1-OG hydrolysis activity”. For the same molecule, the “decrease of FFA release (fraction)” value in the assay with INS 832/13 cells [5] (10 μM WWL70) is listed as “about ⅔”. Besides, the “glucose incorporation into phospholipids” value in the assay on INS 832/13 cells [5] (setting [10]) was “None of the lipase inhibitors had any significant effect”. In addition, in the assay with INS 832/13 cells [5] (setting [11]), the “glucose incorporation into 1-monoacylglycerol (1-MAG)” value is “elevation”. For the same molecule, the “glucose incorporation into 2-monoacylglycerol (2-MAG)” value in the assay with INS 832/13 cells [5] (setting [11]) is “elevation”. Moreover, in the assay on INS 832/13 cells [5] (setting [11]), the “glucose incorporation into diacylglycerol (DAG)” value is listed as “Neither of the inhibitors had any effect”. The “glucose incorporation into triglycerides (TG)” value in the assay on INS 832/13 cells [5] (setting [11]) is listed as “marginal effect”. For the same molecule, the glycemia result in the assay with CD1 mice was “better controlled the glycemia”. Besides, in the assay on CD1 mice, the plasma insulin levels result is “significantly elevated”.
As to `COc1cc(CNC(=O)CCCC/C=C/C(C)C)ccc1O` [capsaicin], at TRPV1-R [7], the “insulin secretion and Ca2+ influx” value is “elevate insulin secretion and Ca^2+ influx”. For the same molecule, the insulin resistance entry with TRPV1-R [8] (administration of capsaicin) is on record as “decrease insulin resistance”. Moreover, in the assay with TRPV1-R [8] (in vivo), the plasma insulin levels entry was “elevates plasma insulin levels”.
The term Ki denotes a dissociation constant, usually derived from enzyme kinetics or from competition with a known ligand. As to `CCCCCCCCCCC[C@@H](C[C@@H]1OC(=O)[C@H]1CCCCCC)OC(=O)[C@H](CC(C)C)NC=O` [orlistat, tetrahydrolipstatin], the “[1-14C]-arachidonic acid incorporation into 1-AG and 2-AG” value with INS 832/13 cells [9] is “curtails”. Also, the insulin secretion entry with INS 832/13 cells [1] (100 μM orlistat, 2 and 10 mM glucose) was “curtails insulin secretion”. Also, the “glucose-stimulated insulin secretion (GSIS)” value in the assay on INS 832/13 cells [1] was “strongly inhibited GSIS”. Further, the inhibition constant (Ki) at ABHD12 is below 100 nM. The “1-OG hydrolysis activity (released oleic acid)” value in assay [4] is recorded as “inhibited the 1-OG hydrolysis activity”. Further, the “release of [U14C]-free fatty acids (FFA)” value in the assay on INS 832/13 cells [5] (1 and 10 mM [U14C]-glucose, 50 μM orlistat, 1 μM JZL184) is “almost completely lowered this release”. In the assay on INS 832/13 cells [5] (setting [10]), the “glucose incorporation into phospholipids” value is listed as “None of the lipase inhibitors had any significant effect”. Also, in the assay with INS 832/13 cells [5] (setting [11]), the “glucose incorporation into 1-monoacylglycerol (1-MAG)” value was “significantly lowered”, the “glucose incorporation into 2-monoacylglycerol (2-MAG)” value was “no effect”, the “glucose incorporation into diacylglycerol (DAG)” value was “Neither of the inhibitors had any effect” and the “glucose incorporation into triglycerides (TG)” value was “TG accumulated”. Moreover, the GSIS result in the assay on rat islets is reported as “curtailed GSIS”.
